Measured values taken from US10550143B2, “C,O-spiro aryl glycoside compounds, preparation therefor and use thereof” (SHANGHAI INSTITUTE OF MATERIA MEDICA, CHINESE ACADEMY OF …, priority 2015, dated 2020).

Experiments:
[1] = test system: db/db mice; test: Chronic administration, random blood glucose in db/db mice; type: in vivo, mouse; details: for random blood glucose Pre: before administration; for Hypoglycemic rate % week 1 / Hypoglycemic rate % week 2 / Hypoglycemic rate % week 3 / Hypoglycemic rate % week 4: random blood glucose
Experimental: Oral gavage administrated, daily dose volume was 10 mL/kg, administered once daily. Administration time was 9: 00-10:00 daily, and the administration period was 5 weeks.
The random blood glucose of mice in the normal control group, model control group, test substance administration group and positive control group were determined on the 7th, 14th, 21st, 28th day (9: 00-10:00) every week after the first administration, and food was removed and after 6 hours of starvation, the fasting blood glucose in each group was measured. Free drinking during the hunger process. The rate of decrease of blood glucose was calculated according to the following formula: Average hypoglycemic rate %=(Blood glucose of model control group−Blood glucose of administration group)/Model control group×100%

[2] = biological target: T1, human sodium-glucose cotransporter 2 (SGLT2) (Homo sapiens, UniProt P31639); test: In vitro SGLT2 inhibition, methyl-α-D-[U-14C]glucopyranoside uptake in NIH3T3-hSGLT2 cells; type: cell-based
T1 construct: expressed in transfected cells; host or cells: NIH3T3 (mouse fibroblast) cells expressing hSGLT2
T1 sequence (P31639 1-672): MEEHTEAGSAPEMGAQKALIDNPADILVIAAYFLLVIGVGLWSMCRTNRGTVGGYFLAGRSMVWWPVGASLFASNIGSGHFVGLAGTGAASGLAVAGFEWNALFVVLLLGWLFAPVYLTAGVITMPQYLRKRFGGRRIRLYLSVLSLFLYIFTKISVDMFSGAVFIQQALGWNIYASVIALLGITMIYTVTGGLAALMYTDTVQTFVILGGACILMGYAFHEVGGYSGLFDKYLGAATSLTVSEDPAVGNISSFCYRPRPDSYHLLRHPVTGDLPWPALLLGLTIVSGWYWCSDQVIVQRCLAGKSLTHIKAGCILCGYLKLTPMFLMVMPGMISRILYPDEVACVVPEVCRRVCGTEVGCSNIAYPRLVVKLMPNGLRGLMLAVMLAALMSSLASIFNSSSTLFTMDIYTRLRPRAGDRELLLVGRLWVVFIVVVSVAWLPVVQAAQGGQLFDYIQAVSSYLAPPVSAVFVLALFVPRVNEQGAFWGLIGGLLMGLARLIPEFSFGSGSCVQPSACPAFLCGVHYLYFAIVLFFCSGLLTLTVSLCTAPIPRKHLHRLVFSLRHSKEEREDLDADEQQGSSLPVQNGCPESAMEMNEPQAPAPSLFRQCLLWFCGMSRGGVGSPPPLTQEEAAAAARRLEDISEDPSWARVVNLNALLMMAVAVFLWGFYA
How it was run: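 NIH3T3-hSGLT2 cells (40000/well, gelatin-coated, 2 mM sodium butyrate the next day) were preincubated 30 min in KRH-Na+, then given compound plus uptake buffer with methyl-α-D-[U-14C]glucopyranoside and ⅙ mM methyl-α-D-glucopyranoside. Uptake was read by scintillation counting, with KRH-acetylcholine as background.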

SMILES: CCc1ccc(Cc2cc3c(cc2Cl)CO[C@]32O[C@H](C)[C@@H](O)[C@H](O)[C@H]2O)s1 [Example A28, (1S,3′R,4′S,5′S,6′R)-6′-methyl-6-((5-ethylthienyl)-2-methyl)-5-chloro-3′,4′,5′,6′-tetrahydro-3H-spiro[isobenzofuran-1,2′-pyran]-3′,4′,5′-triol]
- random blood glucose week 1 ([1]; 0.3 mg/kg once daily oral): 16.9 ± 1.3 mmol/L
- random blood glucose week 2 ([1]; 0.3 mg/kg once daily oral): 15.7 ± 1.3 mmol/L
- random blood glucose week 3 ([1]; 0.3 mg/kg once daily oral): 16.7 ± 1.5 mmol/L
- random blood glucose week 4 ([1]; 0.3 mg/kg once daily oral): 19.1 ± 1.6 mmol/L
- random blood glucose Pre ([1]; 0.3 mg/kg once daily oral): 17.9 ± 1.4 mmol/L
- random blood glucose week 1 ([1]; 1 mg/kg once daily oral): 16.1 ± 1.0 mmol/L
- random blood glucose week 2 ([1]; 1 mg/kg once daily oral): 16.3 ± 1.2 mmol/L
- random blood glucose week 3 ([1]; 1 mg/kg once daily oral): 15.9 ± 1.1 mmol/L
- random blood glucose week 4 ([1]; 1 mg/kg once daily oral): 15.1 ± 1.4 mmol/L
- random blood glucose Pre ([1]; 1 mg/kg once daily oral): 16.8 ± 1.2 mmol/L
- random blood glucose week 1 ([1]; 3 mg/kg once daily oral): 14.7 ± 0.9 mmol/L
- random blood glucose week 2 ([1]; 3 mg/kg once daily oral): 13.0 ± 0.8 mmol/L
- random blood glucose week 3 ([1]; 3 mg/kg once daily oral): 12.4 ± 1.0 mmol/L
- random blood glucose week 4 ([1]; 3 mg/kg once daily oral): 13.2 ± 0.9 mmol/L
- random blood glucose Pre ([1]; 3 mg/kg once daily oral): 18.7 ± 1.2 mmol/L
- random blood glucose week 1 ([1]; 10 mg/kg once daily oral): 12.9 ± 0.6 mmol/L
- random blood glucose week 2 ([1]; 10 mg/kg once daily oral): 10.6 ± 0.5 mmol/L
- random blood glucose week 3 ([1]; 10 mg/kg once daily oral): 9.1 ± 0.4 mmol/L
- random blood glucose week 4 ([1]; 10 mg/kg once daily oral): 9.7 ± 0.7 mmol/L
- random blood glucose Pre ([1]; 10 mg/kg once daily oral): 18.3 ± 1.6 mmol/L
- Hypoglycemic rate % week 1 ([1]; 0.3 mg/kg once daily oral): 14.0%
- Hypoglycemic rate % week 2 ([1]; 0.3 mg/kg once daily oral): 19.1%
- Hypoglycemic rate % week 3 ([1]; 0.3 mg/kg once daily oral): 18.0%
- Hypoglycemic rate % week 4 ([1]; 0.3 mg/kg once daily oral): 7.8%
- Hypoglycemic rate % week 1 ([1]; 1 mg/kg once daily oral): 17.9%
- Hypoglycemic rate % week 2 ([1]; 1 mg/kg once daily oral): 16.0%
- Hypoglycemic rate % week 3 ([1]; 1 mg/kg once daily oral): 21.8%
- Hypoglycemic rate % week 4 ([1]; 1 mg/kg once daily oral): 27.0%
- Hypoglycemic rate % week 1 ([1]; 3 mg/kg once daily oral): 25.4%
- Hypoglycemic rate % week 2 ([1]; 3 mg/kg once daily oral): 33.1%
- Hypoglycemic rate % week 3 ([1]; 3 mg/kg once daily oral): 39.0%
- Hypoglycemic rate % week 4 ([1]; 3 mg/kg once daily oral): 36.6%
- Hypoglycemic rate % week 1 ([1]; 10 mg/kg once daily oral): 34.3%
- Hypoglycemic rate % week 2 ([1]; 10 mg/kg once daily oral): 45.3%
- Hypoglycemic rate % week 3 ([1]; 10 mg/kg once daily oral): 55.3%
- Hypoglycemic rate % week 4 ([1]; 10 mg/kg once daily oral): 53.1%
- Selectivity ([2]; IC50 SGLT1/IC50 SGLT2): 1450
- inhibition at 0.01 µM ([2]; SGLT2, 10 nM, read-out: % Inhibition rate ± SD 10 nM): 67 ± 4.9%
- inhibition at 0.1 µM ([2]; SGLT2, 100 nM, read-out: % Inhibition rate ± SD 100 nM): 86.1 ± 2.4%
- IC50 ([2]; read-out: IC50 ± SD SGLT2): 1.42 ± 0.2 nM
